# Target: human TRPA1 channel (Homo sapiens (Human), UniProt O75762)
# Assay: TRPA1 inhibitor activity, automated patch clamp (SyncroPatch)
# Type: cell-based
# Conditions: CHO cells inducibly expressing human TRPA1; currents elicited by carvacrol (300 μM), holding potential −60 mV; Table 4
# Experimental: This assay was used to evaluate the disclosed compounds' inhibition activities against the human TRPA1 channel.
# CHO cells inducibly expressing human TRPA1 were grown in DMEM containing 10% heat-inactivated FBS, 1 mM Sodium Pyruvate, 2 mM L-Glutamine, Zeocin (100 μg/ml) and Blasticidin (10 μg/ml). Expression was induced by addition of Doxycycline (1 μg/ml) 24 hours before experiments. Cells used for electrophysiology were plated in plastic culture flasks and grown at 37° C. in a 5% CO2-humidified tissue culture incubator per ChanPharm SOP. Stocks were maintained in cryogenic storage.
# The cells were bathed in an extracellular solution containing 80 mM NaCl, 60 mM NMDG, 4 mM KCl, 2 mM CaCl2), 6 mM MgCl2, 5 mM Glucose. 10 mM HEPES, 3 mM HEDTA; pH adjusted to 7.4 with NaOH; 305-310 mOsm. All compounds were dissolved in DMSO at 30 mM. The internal solution contained 10 mM CsCl, 110 mM CsF, 10 mM NaCl, 10 mM EGTA, 10 mM HEPES, 4 mM MgATP, 0.25 mM NaGTP, 4 mM BAPTA; pH adjusted to 7.2 with CsOH; 285-290 mOsm. Compound stock solutions were freshly diluted with external solution to concentrations of 3 nM, 10 nM 30 nM, 100 nM, 300 nM, 1 μM, 3 μM, 10 μM, and 30 μM. The highest content of DMSO (0.1%) was present at 30 μM.
# All experiments were performed at room temperature. Each cell acted as its own control. In preparation for a current recording session, intracellular solution (see above) was loaded into the intracellular compartments of the automated patch clamp platform SyncroPatch (Nanion) chip and the cell suspension was pipetted into the extracellular compartments. After establishment of a whole-cell configuration, membrane current recordings and compound application were enabled by means of the SyncroPatch. TRPA1 currents were elicited by application of carvacrol (300 μM) at a constant holding potential of −60 mV (see Table A below).
# To determine IC50 values, AUC and peak values, obtained in the presence of a given compound concentration, were normalized to control values in absence of compound. Using DataControl384 (Nanion's proprietary software), IC50 values were derived by fitting the normalized data to the Hill equation.
# Chain of human TRPA1 channel (O75762 whole entry): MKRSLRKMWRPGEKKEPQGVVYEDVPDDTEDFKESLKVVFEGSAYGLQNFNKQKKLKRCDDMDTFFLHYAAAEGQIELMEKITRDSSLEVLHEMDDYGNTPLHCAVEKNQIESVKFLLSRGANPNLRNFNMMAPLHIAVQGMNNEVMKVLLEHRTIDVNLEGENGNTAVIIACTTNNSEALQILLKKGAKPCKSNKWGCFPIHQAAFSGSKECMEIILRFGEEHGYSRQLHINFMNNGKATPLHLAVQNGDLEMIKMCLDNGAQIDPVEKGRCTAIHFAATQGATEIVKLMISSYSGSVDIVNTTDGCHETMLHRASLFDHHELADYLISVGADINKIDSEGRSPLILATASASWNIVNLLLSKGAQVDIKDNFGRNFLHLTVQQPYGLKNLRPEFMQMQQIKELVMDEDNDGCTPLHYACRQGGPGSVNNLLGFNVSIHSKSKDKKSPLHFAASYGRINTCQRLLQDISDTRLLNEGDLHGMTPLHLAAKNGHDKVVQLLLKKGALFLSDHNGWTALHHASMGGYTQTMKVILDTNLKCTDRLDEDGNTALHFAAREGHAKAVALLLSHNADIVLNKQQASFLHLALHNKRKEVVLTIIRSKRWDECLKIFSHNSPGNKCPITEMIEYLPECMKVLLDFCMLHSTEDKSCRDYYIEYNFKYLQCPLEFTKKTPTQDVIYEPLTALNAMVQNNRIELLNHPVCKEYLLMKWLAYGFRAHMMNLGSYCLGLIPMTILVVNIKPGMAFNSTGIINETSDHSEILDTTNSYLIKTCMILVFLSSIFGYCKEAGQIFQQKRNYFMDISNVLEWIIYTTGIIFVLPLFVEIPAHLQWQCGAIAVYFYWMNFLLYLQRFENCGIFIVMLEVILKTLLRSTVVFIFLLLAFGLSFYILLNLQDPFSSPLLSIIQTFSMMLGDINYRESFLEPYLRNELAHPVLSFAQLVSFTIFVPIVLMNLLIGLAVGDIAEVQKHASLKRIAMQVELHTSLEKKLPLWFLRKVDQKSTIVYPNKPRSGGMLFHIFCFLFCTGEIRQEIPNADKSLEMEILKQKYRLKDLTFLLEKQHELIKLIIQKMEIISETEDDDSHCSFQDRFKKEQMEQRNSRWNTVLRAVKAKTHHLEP
row,SMILES,IC50 [nM]
1,"Cc1c(N)ncn(Cc2nc(C[C@H](O)c3ccc(Cl)cc3)no2)c1=O [Compound 33, (S)-6-amino-3-((3-(2-(4-chlorophenyl)-2-hydroxyethyl)-1,2,4-oxadiazol-5-yl)methyl)-5-methylpyrimidin-4(3H)-one]",< 1000
2,"Cc1cc(CC(N)=O)cn(Cc2nc(CCc3ccc(Cl)cc3)no2)c1=O [Compound 20, 2-(1-((3-(4-chlorophenethyl)-1,2,4-oxadiazol-5-yl)methyl)-5-methyl-6-oxo-1,6-dihydropyridin-3-yl)acetamide]",< 10000
3,"N#Cc1cc(Br)c(=O)n(Cc2nc(CCc3ccc(Cl)cc3)no2)c1 [Compound 3, 5-bromo-1-((3-(4-chlorophenethyl)-1,2,4-oxadiazol-5-yl)methyl)-6-oxo-1,6-dihydropyridine-3-carbonitrile]",< 1000
4,"Cc1ccc(Cl)c(=O)n1Cc1nc(C[C@H](O)c2ccc(Cl)cc2)no1 [Compound 34, (S)-3-chloro-1-((3-(2-(4-chlorophenyl)-2-hydroxyethyl)-1,2,4-oxadiazol-5-yl)methyl)-6-methylpyridin-2(1H)-one]",< 1000
5,"Cc1cc(C#N)cn(Cc2nc(CCc3ccc(Cl)cc3)no2)c1=O [Compound 2, 1-((3-(4-chlorophenethyl)-1,2,4-oxadiazol-5-yl)methyl)-5-methyl-6-oxo-1,6-dihydropyridine-3-carbonitrile]",< 1000
6,"Cc1nc(C)c(=O)n(Cc2nc(CCc3ccc(Cl)cc3)no2)c1C [Compound 23, 1-((3-(4-chlorophenethyl)-1,2,4-oxadiazol-5-yl)methyl)-3,5,6-trimethylpyrazin-2(1H)-one]",< 1000
7,"Cc1cc(CO)cn(Cc2nc(CCc3ccc(Cl)cc3)no2)c1=O [Compound 16, 1-((3-(4-chlorophenethyl)-1,2,4-oxadiazol-5-yl)methyl)-5-(hydroxymethyl)-3-methylpyridin-2(1H)-one]",< 3000
8,"Cc1c(Br)ccn(Cc2nc(CCc3ccc(Cl)cc3)no2)c1=O [Compound 12, 4-bromo-1-((3-(4-chlorophenethyl)-1,2,4-oxadiazol-5-yl)methyl)-3-methylpyridin-2(1H)-one]",< 3000
9,"Cc1nccn(Cc2nc(CCc3ccc(Cl)cc3)no2)c1=O [Compound 25, 1-((3-(4-chlorophenethyl)-1,2,4-oxadiazol-5-yl)methyl)-3-methylpyrazin-2(1H)-one]",< 3000
10,"Cc1c(-c2cn[nH]c2)ccn(Cc2nc(CCc3ccc(Cl)cc3)no2)c1=O [Compound 15, 1-((3-(4-chlorophenethyl)-1,2,4-oxadiazol-5-yl)methyl)-3-methyl-4-(1H-pyrazol-4-yl)pyridin-2(1H)-one]",< 3000
11,"Nc1c(Cl)c(F)n(Cc2nc(C[C@H](O)c3ccc(Cl)cc3)no2)c(=O)c1Cl [Compound 28, (S)-4-amino-3,5-dichloro-1-((3-(2-(4-chlorophenyl)-2-hydroxyethyl)-1,2,4-oxadiazol-5-yl)methyl)-6-fluoropyridin-2(1H)-one]",< 1000
12,"CNC(=O)c1cc(C)c(=O)n(Cc2nc(CCc3ccc(Cl)cc3)no2)c1 [Compound 9, 1-((3-(4-chlorophenethyl)-1,2,4-oxadiazol-5-yl)methyl)-N,5-dimethyl-6-oxo-1,6-dihydropyridine-3-carboxamide]",< 1000
13,"O=c1c(C(F)(F)F)cccn1Cc1nc(CCc2ccc(Cl)cc2)no1 [Compound 7, 1-((3-(4-chlorophenethyl)-1,2,4-oxadiazol-5-yl)methyl)-3-(trifluoromethyl)pyridin-2(1H)-one]",< 10000
14,"O=c1c(Cl)nc(Br)cn1Cc1nc(C[C@H](O)c2ccc(Cl)cc2)no1 [Compound 21, (S)-5-bromo-3-chloro-1-((3-(2-(4-chlorophenyl)-2-hydroxyethyl)-1,2,4-oxadiazol-5-yl)methyl)pyrazin-2(1H)-one]",< 300
15,"Cc1nc(Cl)cn(Cc2nc(CCc3ccc(Cl)cc3)no2)c1=O [Compound 24, 5-chloro-1-((3-(4-chlorophenethyl)-1,2,4-oxadiazol-5-yl)methyl)-3-methylpyrazin-2(1H)-one]",< 1000
16,"Cc1ncc(C)n(Cc2nc(C[C@H](O)c3ccc(Cl)cc3)no2)c1=O [Compound 31, (S)-1-((3-(2-(4-chlorophenyl)-2-hydroxyethyl)-1,2,4-oxadiazol-5-yl)methyl)-3,6-dimethylpyrazin-2(1H)-one]",< 1000
17,"Cc1cn(Cc2nc(C[C@H](O)c3ccc(Cl)cc3)no2)c(=O)c(C)n1 [Compound 32, (S)-1-((3-(2-(4-chlorophenyl)-2-hydroxyethyl)-1,2,4-oxadiazol-5-yl)methyl)-3,5-dimethylpyrazin-2(1H)-one]",< 1000
18,"Cc1cccn(Cc2nc(CCc3ccc(Cl)cc3)no2)c1=O [Compound 1, 1-((3-(4-chlorophenethyl)-1,2,4-oxadiazol-5-yl)methyl)-3-methylpyridin-2(1H)-one]",< 10000
19,"C=Cc1ccn(Cc2nc(CCc3ccc(Cl)cc3)no2)c(=O)c1C [Compound 13, 1-((3-(4-chlorophenethyl)-1,2,4-oxadiazol-5-yl)methyl)-3-methyl-4-vinylpyridin-2(1H)-one]",< 3000
20,"Cc1c(CO)ccn(Cc2nc(CCc3ccc(Cl)cc3)no2)c1=O [Compound 11, 1-((3-(4-chlorophenethyl)-1,2,4-oxadiazol-5-yl)methyl)-4-(hydroxymethyl)-3-methylpyridin-2(1H)-one]",< 3000
21,"COC(=O)c1cc(C)c(=O)n(Cc2nc(CCc3ccc(Cl)cc3)no2)c1 [Compound 10, methyl 1-((3-(4-chlorophenethyl)-1,2,4-oxadiazol-5-yl)methyl)-5-methyl-6-oxo-1,6-dihydropyridine-3-carboxylate]",< 3000

# Same assay, conditions: CHO cells inducibly expressing human TRPA1; currents elicited by carvacrol (300 μM), holding potential −60 mV; Table 5
row,SMILES,IC50 [nM]
1,"Cc1ncc(Cl)c(=O)n1Cc1nc(C[C@H](O)c2ccc(Cl)cc2)no1 [Compound 69, (S)-5-chloro-3-((3-(2-(4-chlorophenyl)-2-hydroxyethyl)-1,2,4-oxadiazol-5-yl)methyl)-2-methylpyrimidin-4(3H)-one]",< 1000
2,"O=c1c(Cl)c(-c2cn[nH]c2)ccn1Cc1nc(C[C@H](O)c2ccc(Cl)cc2)no1 [Compound 74, (S)-3-chloro-1-((3-(2-(4-chlorophenyl)-2-hydroxyethyl)-1,2,4-oxadiazol-5-yl)methyl)-4-(1H-pyrazol-4-yl)pyridin-2(1H)-one]",< 1000
3,"Cc1ncn(Cc2nc(C[C@H](O)c3ccc(Cl)cc3)no2)c(=O)c1C [Compound 68, (S)-3-((3-(2-(4-chlorophenyl)-2-hydroxyethyl)-1,2,4-oxadiazol-5-yl)methyl)-5,6-dimethylpyrimidin-4(3H)-one]",< 300
4,"NC(=O)c1ncn(Cc2nc(C[C@H](O)c3ccc(Cl)cc3)no2)c(=O)c1Cl [Compound 62, (S)-5-chloro-1-((3-(2-(4-chlorophenyl)-2-hydroxyethyl)-1,2,4-oxadiazol-5-yl)methyl)-6-oxo-1,6-dihydropyrimidine-4-carboxamide]",< 1000
5,"O=c1c(Cl)c(Cl)ncn1Cc1nc(C[C@H](O)c2ccc(Cl)cc2)no1 [Compound 64, (S)-5,6-dichloro-3-((3-(2-(4-chlorophenyl)-2-hydroxyethyl)-1,2,4-oxadiazol-5-yl)methyl)pyrimidin-4(3H)-one]",< 100
6,"Nc1ncn(Cc2nc(C[C@H](O)c3ccc(Cl)cc3)no2)c(=O)c1Cl [Compound 72, (S)-6-amino-5-chloro-3-((3-(2-(4-chlorophenyl)-2-hydroxyethyl)-1,2,4-oxadiazol-5-yl)methyl)pyrimidin-4(3H)-one]",< 300

# — patent US20250270198A1, “PYRIDONE COMPOUNDS AS TRPA1 INHIBITORS” (D. E. Shaw Research, LLC, priority 2022, published 2025)
